According to patent US12459951B2, “Compounds that interact with RAS superfamily proteins for treatment of cancers, inflammatory diseases, rasopathies, and fibrotic disease” (SHY Therapeutics, LLC, priority 2022, dated 2025):

Assays:
Akt phosphorylation = experiment: Akt Phosphorylation Assay (western blot), Panc-1; format: cell-based, human; settings: at 10 μM, * = activation
Summary of the method: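 Panc-1 (KRas G12D) cells were treated with compound at 10 μM final (0.3% DMSO) for 6 h at 37 °C, or with serial dilutions for IC50. Cells were either serum-starved overnight in 0.5% FBS and then stimulated with 1.5 ng/ml EGF for 15 min, or kept in 10% FBS without stimulation. Akt Ser473 phosphorylation in lysates was read by western blot.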

IL6 = experiment: IL-6 Quantification Assay (ELISA), LPS-stimulated RAW 264.7; format: cell-based; design: inhibition: dose or concentration left out as unconfirmed; settings: Mus musculus, RAW264.7; read-out: IL-6: % inh.
Erk1/2 phosphorylation = experiment: Erk1/2 Phosphorylation Assay (western blot), Panc-1; format: cell-based, human; settings: at 10 μM, * = activation
Summary of the method: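 KRas G12D Panc-1 cells were treated 6 h at 37° C with compound at 10 μM or serial dilutions for IC50 (0.3% DMSO). In method 1, cells were serum-starved overnight (0.5% FBS) and then given 1.5 ng/ml EGF for 15 min. In method 2, cells stayed in 10% FBS without stimulation. Lysate phospho-Erk1/2 (Thr202/Tyr204) was read by western blot.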

SMILES: CO[C@H]1C[C@H](Nc2nc(-c3nccn3C)nn3cc(-c4cccnc4)c(-c4cccnc4)c23)C1 [Compound 171, N-((1r,3r)-3-Methoxycyclobutyl)-2-(1-methyl-1H-imidazol-2-yl)-5,6-di(pyridin-3-yl)pyrrolo[2,1-f][1,2,4]triazin-4-amine]
- % inh of Akt phosphorylation in Panc-1 (Akt phosphorylation): B (26-49% inhibition)
- inhibition (IL6): 0%
- % inh of Erk1/2 phosphorylation in Panc-1 (Erk1/2 phosphorylation): B (26-49% inhibition)

SMILES: Cc1c(-c2ccn(C)n2)cn2nc(-c3nccn3C)nc(O)c12 [Compound 172, 5-Methyl-2-(1-methyl-1H-imidazol-2-yl)-6-(1-methyl-1H-pyrazol-3-yl)pyrrolo[2,1-f][1,2,4]triazin-4-ol]
- % inh of Akt phosphorylation in Panc-1 (Akt phosphorylation): B* (26-49% activation)
- inhibition (IL6): 1 to 24%
- % inh of Erk1/2 phosphorylation in Panc-1 (Erk1/2 phosphorylation): 0 (0% inhibition)

SMILES: CCNC(=O)c1c(-c2ccn(C)n2)cn2nc(-c3nccn3C)nc(Nc3cc(OC)ccn3)c12 [Compound 173, N-Ethyl-4-((4-methoxypyridin-2-yl)amino)-2-(1-methyl-1H-imidazol-2-yl)-6-(1-methyl-1H-pyrazol-3-yl)pyrrolo[2,1-f][1,2,4]triazine-5-carboxamide]
- % inh of Akt phosphorylation in Panc-1 (Akt phosphorylation): C* (46-84% activation)
- inhibition (IL6): 75 to 100%
- % inh of Erk1/2 phosphorylation in Panc-1 (Erk1/2 phosphorylation): C (50-84% inhibition)

SMILES: COc1ccnc(Nc2nc(-c3nccn3C)nn3cc(-c4ccn(C)n4)c(C(=O)NCC(F)(F)F)c23)c1 [Compound 174, 4-((4-Methoxypyridin-2-yl)amino)-2-(1-methyl-1H-imidazol-2-yl)-6-(1-methyl-1H-pyrazol-3-yl)-N-(2,2,2-trifluoro-ethyl)pyrrolo[2,1-f][1,2,4]triazine-5-carboxamide]
- % inh of Akt phosphorylation in Panc-1 (Akt phosphorylation): D* (85-100% activation)
- inhibition (IL6): 1 to 24%
- % inh of Erk1/2 phosphorylation in Panc-1 (Erk1/2 phosphorylation): D* (85-100% activation)

SMILES: COc1ccnc(Nc2nc(-c3nccn3C)nn3cc(-c4ccn(C)n4)c(C(=O)NC4CC4)c23)c1 [Compound 175, N-Cyclopropyl-4-((4-methoxypyridin-2-yl)amino)-2-(1-methyl-1H-imidazol-2-yl)-6-(1-methyl-1H-pyrazol-3-yl)pyrrolo[2,1-f][1,2,4]triazine-5-carboxamide]
- % inh of Akt phosphorylation in Panc-1 (Akt phosphorylation): D* (85-100% activation)
- inhibition (IL6): 75 to 100%
- % inh of Erk1/2 phosphorylation in Panc-1 (Erk1/2 phosphorylation): D* (85-100% activation)

SMILES: COCCNC(=O)c1c(-c2ccn(C)n2)cn2nc(-c3nccn3C)nc(Nc3cc(OC)ccn3)c12 [Compound 176, N-(2-Methoxyethyl)-4-((4-methoxypyridin-2-yl)amino)-2-(1-methyl-1H-imidazol-2-yl)-6-(1-methyl-1H-pyrazol-3-yl)pyrrolo[2,1-f][1,2,4]triazine-5-carboxamide]
- % inh of Akt phosphorylation in Panc-1 (Akt phosphorylation): D* (85-100% activation)
- inhibition (IL6): 75 to 100%
- % inh of Erk1/2 phosphorylation in Panc-1 (Erk1/2 phosphorylation): D* (85-100% activation)

SMILES: COc1ccnc(Nc2nc(-c3nccn3C)nn3cc(-c4ccn(C)n4)c(C(=O)NCCN(C)C)c23)c1 [Compound 177, N-(2-(Dimethylamino)ethyl)-4-((4-methoxypyridin-2-yl)amino)-2-(1-methyl-1H-imidazol-2-yl)-6-(1-methyl-1H-pyrazol-3-yl)pyrrolo[2,1-f][1,2,4]triazine-5-carboxamide]
- % inh of Akt phosphorylation in Panc-1 (Akt phosphorylation): A* (1-25% activation)
- inhibition (IL6): 75 to 100%
- % inh of Erk1/2 phosphorylation in Panc-1 (Erk1/2 phosphorylation): D* (85-100% activation)

SMILES: COc1ccnc(Nc2nc(-c3nccn3C)nn3cc(-c4ccn(C)n4)c(C(=O)N4CCCC4)c23)c1 [Compound 178, (4-((4-Methoxypyridin-2-yl)amino)-2-(1-methyl-1H-imidazol-2-yl)-6-(1-methyl-1H-pyrazol-3-yl)pyrrolo[2,1-f][1,2,4]triazin-5-yl)(pyrrolidin-1-yl)methanone]
- % inh of Akt phosphorylation in Panc-1 (Akt phosphorylation): D* (85-100% activation)
- inhibition (IL6): 50 to 74%
- % inh of Erk1/2 phosphorylation in Panc-1 (Erk1/2 phosphorylation): D* (85-100% activation)

SMILES: COc1ccnc(Nc2nc(-c3nccn3C)nn3cc(-c4ccn(C)n4)c(C(=O)N4CCOCC4)c23)c1 [Compound 179, (4-((4-Methoxypyridin-2-yl)amino)-2-(1-methyl-1H-imidazol-2-yl)-6-(1-methyl-1H-pyrazol-3-yl)pyrrolo[2,1-f][1,2,4]triazin-5-yl)(morpho-lino)methanone]
- % inh of Akt phosphorylation in Panc-1 (Akt phosphorylation): D* (85-100% activation)
- inhibition (IL6): 50 to 74%
- % inh of Erk1/2 phosphorylation in Panc-1 (Erk1/2 phosphorylation): D* (85-100% activation)

SMILES: Cc1c(-c2ccn(C)n2)cn2nc(-c3nccn3C)nc(Nc3cc(OCCNC(=O)CCCC[C@H]4SC[C@H]5NC(=O)N[C@H]54)ccn3)c12 [Compound 186, N-(2-((2-((5-Methyl-2-(1-methyl-1H-imidazol-2-yl)-6-(1-methyl-1H-pyrazol-3-yl)pyrrolo[2,1-f][1,2,4]triazin-4-yl)amino)pyridin-4-yl)oxy)ethyl)-5-((3aR,4R,6aS)-2-oxohexahydro-1H-thieno[3,4-d]imidazol-4-yl)pentanamide]
- % inh of Akt phosphorylation in Panc-1 (Akt phosphorylation): A* (1-25% activation)
- inhibition (IL6): 1 to 24%
- % inh of Erk1/2 phosphorylation in Panc-1 (Erk1/2 phosphorylation): A* (1-25% activation)

SMILES: COc1ccnc(Nc2nc(-c3nccn3C)nn3cc(-c4ccn(CCN)n4)c(C)c23)c1 [Compound 187, 6-(1-(2-Aminoethyl)-1H-pyrazol-3-yl)-N-(4-methoxypyridin-2-yl)-5-methyl-2-(1-methyl-1H-imidazol-2-yl)pyrrolo[2,1-f][1,2,4]triazin-4-amine]
- % inh of Akt phosphorylation in Panc-1 (Akt phosphorylation): C* (46-84% activation)
- inhibition (IL6): 50 to 74%
- % inh of Erk1/2 phosphorylation in Panc-1 (Erk1/2 phosphorylation): A (1-25% inhibition)

SMILES: COc1ccnc(Nc2nc(-c3nccn3CCN)nn3cc(-c4ccn(C)n4)c(C)c23)c1 [Compound 188, 2-(1-(2-Aminoethyl)-1H-imidazol-2-yl)-N-(4-methoxypyridin-2-yl)-5-methyl-6-(1-methyl-1H-pyrazol-3-yl)pyrrolo[2,1-f][1,2,4]triazin-4-amine]
- % inh of Akt phosphorylation in Panc-1 (Akt phosphorylation): A* (1-25% activation)
- inhibition (IL6): 50 to 74%
- % inh of Erk1/2 phosphorylation in Panc-1 (Erk1/2 phosphorylation): A (1-25% inhibition)

SMILES: Cn1ccnc1-c1nc(O)c2c(-c3ccccc3)c(-c3cccnc3)cn2n1 [Compound 189, 2-(1-Methyl-1H-imidazol-2-yl)-5-phenyl-6-(pyridin-3-yl)pyrrolo[2,1-f][1,2,4]triazin-4-ol]
- % inh of Akt phosphorylation in Panc-1 (Akt phosphorylation): B (26-49% inhibition)
- inhibition (IL6): 0%
- % inh of Erk1/2 phosphorylation in Panc-1 (Erk1/2 phosphorylation): A* (1-25% activation)

SMILES: CO[C@H]1C[C@@H](Nc2nc(-c3nccn3C)nn3cc(-c4cccnc4)c(-c4ccccc4)c23)C1 [Compound 191, N-((1s,3s)-3-Methoxycyclobutyl)-2-(1-methyl-1H-imidazol-2-yl)-5-phenyl-6-(pyridin-3-yl)pyrrolo[2,1-f][1,2,4]triazin-4-amine]
- % inh of Akt phosphorylation in Panc-1 (Akt phosphorylation): D* (85-100% activation)
- inhibition (IL6): 50 to 74%
- % inh of Erk1/2 phosphorylation in Panc-1 (Erk1/2 phosphorylation): D* (85-100% activation)

SMILES: CO[C@H]1C[C@H](Nc2nc(-c3nccn3C)nn3cc(-c4cccnc4)c(-c4ccccc4)c23)C1 [Compound 192, N-((1r,3r)-3-Methoxycyclobutyl)-2-(1-methyl-1H-imidazol-2-yl)-5-phenyl-6-(pyridin-3-yl)pyrrolo[2,1-f][1,2,4]triazin-4-amine]
- % inh of Akt phosphorylation in Panc-1 (Akt phosphorylation): D* (85-100% activation)
- inhibition (IL6): 75 to 100%
- % inh of Erk1/2 phosphorylation in Panc-1 (Erk1/2 phosphorylation): D* (85-100% activation)

SMILES: COCCNc1nc(-c2nccn2C)nn2cc(-c3cccnc3)c(-c3ccccc3)c12 [Compound 195, N-(2-Methoxyethyl)-2-(1-methyl-1H-imidazol-2-yl)-5-phenyl-6-(pyridin-3-yl)pyrrolo[2,1-f][1,2,4]triazin-4-amine]
- % inh of Akt phosphorylation in Panc-1 (Akt phosphorylation): D* (85-100% activation)
- inhibition (IL6): 50 to 74%
- % inh of Erk1/2 phosphorylation in Panc-1 (Erk1/2 phosphorylation): B* (26-49% activation)

SMILES: COc1ccnc(Nc2nc(-c3nccn3C)nn3cc(-c4cccnc4)c(-c4ccccc4)c23)c1 [Compound 196, N-(4-Methoxypyridin-2-yl)-2-(1-methyl-1H-imidazol-2-yl)-5-phenyl-6-(pyridin-3-yl)pyrrolo[2,1-f][1,2,4]triazin-4-amine]
- % inh of Akt phosphorylation in Panc-1 (Akt phosphorylation): D* (85-100% activation)
- inhibition (IL6): 75 to 100%
- % inh of Erk1/2 phosphorylation in Panc-1 (Erk1/2 phosphorylation): D* (85-100% activation)

SMILES: CO[C@H]1C[C@@H](Nc2nc(-c3nccn3C)nn3cc(-c4ccncc4)c(-c4ccccc4)c23)C1 [Compound 198, N-((1s,3s)-3-Methoxycyclobutyl)-2-(1-methyl-1H-imidazol-2-yl)-5-phenyl-6-(pyridin-4-yl)pyrrolo[2,1-f][1,2,4]triazin-4-amine]
- % inh of Akt phosphorylation in Panc-1 (Akt phosphorylation): C (50-84% inhibition)
- inhibition (IL6): 25 to 49%
- % inh of Erk1/2 phosphorylation in Panc-1 (Erk1/2 phosphorylation): D* (85-100% activation)

SMILES: CO[C@H]1C[C@H](Nc2nc(-c3nccn3C)nn3cc(-c4ccncc4)c(-c4ccccc4)c23)C1 [Compound 199, N-((1r,3r)-3-Methoxycyclobutyl)-2-(1-methyl-1H-imidazol-2-yl)-5-phenyl-6-(pyridin-4-yl)pyrrolo[2,1-f][1,2,4]triazin-4-amine]
- % inh of Akt phosphorylation in Panc-1 (Akt phosphorylation): A (1-25% inhibition)
- inhibition (IL6): 75 to 100%
- % inh of Erk1/2 phosphorylation in Panc-1 (Erk1/2 phosphorylation): D* (85-100% activation)

SMILES: COCCNc1nc(-c2nccn2C)nn2cc(-c3ccncc3)c(-c3ccccc3)c12 [Compound 202, N-(2-Methoxyethyl)-2-(1-methyl-1H-imidazol-2-yl)-5-phenyl-6-(pyridin-4-yl)pyrrolo[2,1-f][1,2,4]triazin-4-amine]
- % inh of Akt phosphorylation in Panc-1 (Akt phosphorylation): B (26-49% inhibition)
- inhibition (IL6): 50 to 74%
- % inh of Erk1/2 phosphorylation in Panc-1 (Erk1/2 phosphorylation): D* (85-100% activation)
